Values quoted from earlier work, collected in PMC3518266 (Chemistry & biology, 2010).
pKi: −log10 of the molar value.

Target: hevamine
Details: competitive inhibition of hevamine; ref Vaaje-Kolstad et al., 2004; cited from earlier work

In the case of `CC(=O)N[C@H]1[C@H](O[C@H]2[C@@H](O)[C@@H](NC(C)=O)[C@H](O[C@H]3[C@H](O)[C@H]4N=C(N(C)C)O[C@H]4[C@@H]3CO)O[C@@H]2CO)O[C@H](CO)[C@@H](O)[C@H]1O` [allosamidin], the pKi is listed as 5.51.
